Laboratory results as given in article PMC6722389, “Cryo-EM structure of the Ustilago maydis kinesin-5 motor domain bound to microtubules” (Journal of Structural Biology, 2019).

Legend:
UmKin5 = biological target: T1, UmKin5 (Mycosarcoma maydis, UniProt A0A0D1DQH0); assay: cryo-EM structure; conditions: microtubule-bound (bovine brain tubulin, paclitaxel); 5 mM AMPPNP, 1 mM MgCl2, pH 6.8; nucleotide binding site; overall resolution 4.3 Å, motor ~5-7 Å
T1 construct: gene UMAG_10678; motor domain residues 73-456 without N-terminal extension; N-terminal His6 tag removed by TEV protease; E. coli BL21*(DE3); monomeric

N+UmKin5 = biological target: T2, N+UmKin5 (Mycosarcoma maydis, UniProt A0A0D1DQH0); assay: cryo-EM structure; conditions: microtubule-bound (bovine brain tubulin, paclitaxel); 5 mM AMPPNP, 1 mM MgCl2, pH 6.8; nucleotide binding site; overall resolution 4.5 Å, motor ~5-7 Å
T2 construct: gene UMAG_10678; motor domain with 72-residue N-terminal extension, residues 1-456; N-terminal His6 tag removed by TEV protease; E. coli BL21*(DE3); monomeric

Structure (SMILES): Nc1ncnc2c1ncn2[C@@H]1O[C@H](COP(=O)(O)OP(=O)(O)NP(=O)(O)O)[C@@H](O)[C@H]1O [AMPPNP]
- cryo-EM structure (UmKin5): Strong density is visible at the nucleotide binding site consistent with the presence of AMPPNP.
- cryo-EM structure (N+UmKin5): Both constructs bound the MT lattice in the presence of the non-hydrolysable ATP analogue AMPPNP
